Laboratory results as given in patent US9968626B2, “Method for treating obesity” (Rhamnopharma Inc., priority 2011, dated 2018).

Assay: Body weight of allergic-rhinitis-sensitized Balb/C mice after intranasal rhamnolipid doses (Example 1)
Type: in vivo
Details: 0.5% solution in saline, 5 μl per nostril at two time points on Day 37 (total 20 μl)
Source text: Originally, the objective of this study was to determine the effects of treatment with three different pharmaceutical formulations of rhamnolipids within the context of an allergic rhinitis study in mice. However, the weight loss effects due to treatment with the various rhamnolipids were unexpectedly discovered during the course of this study. Materials Animal: Balb/C mice were used in this study and were eight weeks old. The treatment groups and the placebo group were each composed of 10 mice. Allergenization was performed in a similar fashion as reported in the literature. Sensitization Materials: The following were used to sensitize and induce allergic rhinitis in the mice:
Mice were sensitized once-weekly with four intraperitoneal injections of OVA/Alum (Day 0, […], 14 and 21). From Day 22-39, anesthetized mice were administered once-daily doses of the OVA stock solution instilled in each nostril.
On Day 37, mice were assigned to one of three rhamnolipid treatment groups or a placebo group. The rhamnolipid treatment groups received a rhamnolipid mixture containing RPI-100, RPI-200, or RPI-300. […] Body weights of the mice were measured and recorded on Days 35, 37, and 39 as part of a standard animal safety observation protocol. […]

## CCCCCCCC(CC(=O)O)OC(=O)CC(CCCCCCC)O[C@@H]1O[C@@H](C)[C@H](O)[C@@H](O)[C@H]1O (stereo partly drawn) [RPI-200, L-rhamnosyl-β-hydroxydecanoyl-β-hydrocydecanoate]
  body weight, 2 days post-treatment (Day 39) compared with 2 days pre-treatment (Day 35), versus placebo: statistically significant reduction in body weight
